The values below come from ChEMBL document CHEMBL5120797, “Principles of Kinase Allosteric Inhibition and Pocket Validation” (J Med Chem, 2022).

As usually defined, the IC50 is the midpoint of a concentration-inhibition curve. For orientation: Kd means the concentration at which binding is half-saturated.

Assay [1] deals with Serine/threonine-protein kinase WNK1 (Homo sapiens, UniProt Q9H4A3). Nature of the assay: Inhibition of human WNK1 (198 to 401 residues) using biotinylated STK3 as substrate incubated for 2 hrs by HTRF assay. A general note: In TR-FRET formats the signal depends on donor and acceptor labels being close together.
Assay [2] can be described thus: Binding affinity to MEK1/2 (unknown origin) assessed as dissociation constant. Set-up: species or system Homo sapiens.
Assay [3] has as its target T1, Tyrosine-protein kinase ITK/TSK (Homo sapiens, UniProt Q08881).
T1 sequence (Q08881 whole entry): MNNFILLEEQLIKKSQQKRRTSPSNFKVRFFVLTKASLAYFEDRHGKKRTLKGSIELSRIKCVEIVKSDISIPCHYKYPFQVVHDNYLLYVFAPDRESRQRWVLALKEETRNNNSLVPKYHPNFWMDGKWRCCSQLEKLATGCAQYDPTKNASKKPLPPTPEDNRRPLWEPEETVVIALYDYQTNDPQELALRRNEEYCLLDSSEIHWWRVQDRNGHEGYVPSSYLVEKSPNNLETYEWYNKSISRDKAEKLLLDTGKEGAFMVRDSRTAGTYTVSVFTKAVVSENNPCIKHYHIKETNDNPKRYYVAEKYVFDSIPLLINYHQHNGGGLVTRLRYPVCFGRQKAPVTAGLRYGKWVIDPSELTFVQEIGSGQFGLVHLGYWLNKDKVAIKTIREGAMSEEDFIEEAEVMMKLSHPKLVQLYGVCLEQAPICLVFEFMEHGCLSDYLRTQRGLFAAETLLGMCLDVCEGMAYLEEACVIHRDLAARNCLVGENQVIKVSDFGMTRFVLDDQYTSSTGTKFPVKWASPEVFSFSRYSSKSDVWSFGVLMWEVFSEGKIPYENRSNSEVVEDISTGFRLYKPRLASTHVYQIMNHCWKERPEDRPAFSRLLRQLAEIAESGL
Nature of the assay: Inhibition of human N-terminal His6 tagged ITK (354 to 620 residues) expressed in Sf9 insect cells incubated for 30 mins by time-resolved fluorescence assay.

Assay [4] can be described thus: Inhibition of MEK1/2 (unknown origin). Set-up: species or system Homo sapiens.
The target of assay [5] is Hepatocyte growth factor receptor (Homo sapiens, UniProt P08581). Nature of the assay: Inhibition of c-Met (unknown origin).
Chain of Hepatocyte growth factor receptor (P08581 whole entry): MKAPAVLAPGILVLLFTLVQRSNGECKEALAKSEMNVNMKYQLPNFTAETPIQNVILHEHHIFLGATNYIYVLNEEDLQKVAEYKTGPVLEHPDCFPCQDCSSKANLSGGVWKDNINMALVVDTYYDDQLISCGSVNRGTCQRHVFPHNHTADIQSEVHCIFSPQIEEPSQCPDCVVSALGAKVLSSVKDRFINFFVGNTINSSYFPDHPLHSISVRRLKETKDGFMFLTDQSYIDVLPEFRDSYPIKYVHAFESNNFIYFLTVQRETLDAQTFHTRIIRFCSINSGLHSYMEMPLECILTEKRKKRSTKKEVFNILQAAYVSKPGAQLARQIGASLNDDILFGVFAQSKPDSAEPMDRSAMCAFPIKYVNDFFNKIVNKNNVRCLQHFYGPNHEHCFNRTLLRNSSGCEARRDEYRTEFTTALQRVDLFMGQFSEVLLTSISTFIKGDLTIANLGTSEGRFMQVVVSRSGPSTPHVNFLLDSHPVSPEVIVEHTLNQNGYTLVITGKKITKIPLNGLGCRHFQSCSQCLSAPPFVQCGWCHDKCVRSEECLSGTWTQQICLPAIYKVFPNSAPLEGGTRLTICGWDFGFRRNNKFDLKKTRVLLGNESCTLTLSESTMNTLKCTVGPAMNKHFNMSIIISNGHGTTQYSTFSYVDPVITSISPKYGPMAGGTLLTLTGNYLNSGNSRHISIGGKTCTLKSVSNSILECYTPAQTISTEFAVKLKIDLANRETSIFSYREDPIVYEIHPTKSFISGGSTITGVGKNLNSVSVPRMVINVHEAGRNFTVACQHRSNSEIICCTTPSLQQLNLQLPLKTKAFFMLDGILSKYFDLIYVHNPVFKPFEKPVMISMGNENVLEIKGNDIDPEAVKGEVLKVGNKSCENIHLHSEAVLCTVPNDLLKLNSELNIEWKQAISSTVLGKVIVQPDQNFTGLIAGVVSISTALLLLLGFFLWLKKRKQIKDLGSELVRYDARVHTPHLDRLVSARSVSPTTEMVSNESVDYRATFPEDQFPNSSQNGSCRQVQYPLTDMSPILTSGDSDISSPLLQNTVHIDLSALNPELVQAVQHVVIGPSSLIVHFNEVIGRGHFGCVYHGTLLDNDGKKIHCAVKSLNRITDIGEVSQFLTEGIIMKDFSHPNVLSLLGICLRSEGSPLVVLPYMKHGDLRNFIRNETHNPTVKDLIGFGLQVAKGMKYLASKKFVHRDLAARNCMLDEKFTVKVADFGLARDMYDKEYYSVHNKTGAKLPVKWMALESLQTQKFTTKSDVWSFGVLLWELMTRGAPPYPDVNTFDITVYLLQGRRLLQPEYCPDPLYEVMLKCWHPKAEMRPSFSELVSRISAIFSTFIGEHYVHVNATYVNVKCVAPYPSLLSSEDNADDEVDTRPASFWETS

Chain of Serine/threonine-protein kinase WNK1 (Q9H4A3 whole entry, the tested form may be a part): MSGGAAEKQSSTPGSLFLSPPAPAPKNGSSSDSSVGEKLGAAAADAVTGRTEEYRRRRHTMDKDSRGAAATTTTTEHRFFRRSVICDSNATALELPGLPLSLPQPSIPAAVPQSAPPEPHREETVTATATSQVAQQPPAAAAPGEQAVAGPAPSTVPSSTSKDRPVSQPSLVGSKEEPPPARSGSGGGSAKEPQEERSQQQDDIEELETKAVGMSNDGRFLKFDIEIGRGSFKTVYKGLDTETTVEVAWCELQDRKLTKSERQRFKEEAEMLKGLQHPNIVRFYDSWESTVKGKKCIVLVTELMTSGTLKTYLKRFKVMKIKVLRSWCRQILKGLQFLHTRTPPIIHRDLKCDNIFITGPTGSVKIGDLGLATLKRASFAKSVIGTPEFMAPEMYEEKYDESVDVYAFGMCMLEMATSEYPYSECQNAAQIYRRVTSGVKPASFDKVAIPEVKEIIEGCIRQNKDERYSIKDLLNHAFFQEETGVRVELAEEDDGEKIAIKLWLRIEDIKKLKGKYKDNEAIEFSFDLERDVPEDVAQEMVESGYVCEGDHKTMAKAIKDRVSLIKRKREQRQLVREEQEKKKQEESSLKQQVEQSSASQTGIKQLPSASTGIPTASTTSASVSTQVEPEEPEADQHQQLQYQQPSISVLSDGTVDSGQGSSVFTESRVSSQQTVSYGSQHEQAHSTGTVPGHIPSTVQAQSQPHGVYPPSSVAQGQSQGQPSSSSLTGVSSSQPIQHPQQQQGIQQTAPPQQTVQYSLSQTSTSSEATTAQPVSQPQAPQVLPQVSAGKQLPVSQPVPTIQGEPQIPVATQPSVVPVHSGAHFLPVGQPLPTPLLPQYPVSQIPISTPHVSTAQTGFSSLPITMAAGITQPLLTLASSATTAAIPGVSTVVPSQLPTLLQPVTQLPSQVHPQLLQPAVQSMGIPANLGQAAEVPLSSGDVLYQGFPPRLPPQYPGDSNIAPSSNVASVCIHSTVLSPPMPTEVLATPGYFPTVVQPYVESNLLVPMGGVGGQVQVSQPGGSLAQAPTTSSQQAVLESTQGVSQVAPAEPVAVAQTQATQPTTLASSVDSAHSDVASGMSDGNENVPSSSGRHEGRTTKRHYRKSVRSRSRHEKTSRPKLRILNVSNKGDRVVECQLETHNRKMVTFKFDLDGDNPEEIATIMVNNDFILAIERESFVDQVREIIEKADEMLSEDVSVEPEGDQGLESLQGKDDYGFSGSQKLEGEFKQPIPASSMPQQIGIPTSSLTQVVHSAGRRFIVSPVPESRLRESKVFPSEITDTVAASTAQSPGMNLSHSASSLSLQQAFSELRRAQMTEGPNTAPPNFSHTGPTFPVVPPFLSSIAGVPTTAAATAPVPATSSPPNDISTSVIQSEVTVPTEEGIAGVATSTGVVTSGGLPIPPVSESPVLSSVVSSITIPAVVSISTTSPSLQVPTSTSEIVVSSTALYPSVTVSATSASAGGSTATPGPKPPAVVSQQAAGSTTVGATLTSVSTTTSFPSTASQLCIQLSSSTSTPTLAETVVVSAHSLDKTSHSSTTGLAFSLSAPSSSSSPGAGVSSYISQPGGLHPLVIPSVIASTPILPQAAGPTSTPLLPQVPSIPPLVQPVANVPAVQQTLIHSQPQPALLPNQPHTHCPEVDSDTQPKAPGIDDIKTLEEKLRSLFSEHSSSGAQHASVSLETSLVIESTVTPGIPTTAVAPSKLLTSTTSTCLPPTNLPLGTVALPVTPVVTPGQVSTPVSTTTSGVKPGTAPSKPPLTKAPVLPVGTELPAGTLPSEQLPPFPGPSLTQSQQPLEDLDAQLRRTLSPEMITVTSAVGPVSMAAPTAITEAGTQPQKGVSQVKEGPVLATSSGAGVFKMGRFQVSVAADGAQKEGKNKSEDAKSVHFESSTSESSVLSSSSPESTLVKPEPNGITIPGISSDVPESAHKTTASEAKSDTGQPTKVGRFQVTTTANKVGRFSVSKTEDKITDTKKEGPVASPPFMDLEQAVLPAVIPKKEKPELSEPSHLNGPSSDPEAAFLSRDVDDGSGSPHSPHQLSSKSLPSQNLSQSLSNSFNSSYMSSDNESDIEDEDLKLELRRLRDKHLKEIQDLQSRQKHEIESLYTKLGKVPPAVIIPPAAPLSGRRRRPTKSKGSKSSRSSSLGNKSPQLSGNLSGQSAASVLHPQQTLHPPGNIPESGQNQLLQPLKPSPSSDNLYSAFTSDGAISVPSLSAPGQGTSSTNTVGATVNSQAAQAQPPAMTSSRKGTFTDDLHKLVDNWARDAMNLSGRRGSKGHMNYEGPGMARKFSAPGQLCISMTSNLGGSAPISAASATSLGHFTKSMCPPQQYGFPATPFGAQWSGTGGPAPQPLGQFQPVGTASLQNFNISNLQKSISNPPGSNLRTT

Take `CNc1nc(-c2ccc3c(c2)CCN3C(=O)c2ccccc2OCc2ccc(Cl)cc2)cs1`: in assay [1], the concentration for half-maximal inhibition (IC50) stood at 120 nM. That is a sub-micromolar value.

Regarding `Cn1cnc2c(F)c(Nc3ccc(Br)cc3Cl)c(C(=O)NOCCO)cc21` [SELUMETINIB], in assay [2], the Kd stood at 14 nM.

In the case of `CC(C)Oc1ccc2cccc(-n3cc(NC(N)=O)c(C(N)=O)n3)c2c1`, the half-inhibitory concentration (IC50) in assay [3] came out at 30 nM.

For the molecule `CC(=O)Nc1cccc(-n2c(=O)n(C3CC3)c(=O)c3c(Nc4ccc(I)cc4F)n(C)c(=O)c(C)c32)c1` [TRAMETINIB], in assay [2], the Kd came to 3 nM. The same molecule gave an IC50 in assay [4] of 2 nM.

In turn, `O=C1NC(=O)[C@@H](c2cn3c4c(cccc24)CCC3)[C@@H]1c1c[nH]c2ccccc12` [TIVANTINIB] had an IC50 in assay [5] of 360 nM.
